Patent US20110112099A1, “THERAPEUTIC AGENT FOR CANCER RESISTANT TO PROTEASE INHIBITOR” (KYOWA HAKKO KIRIN CO., LTD., priority 2007, published 2011)
Like-named read-outs stand apart in the source and are kept apart here. Where a SMILES comes first, the peptide text is derived from it. The star is where a group is joined. Cbz = O=C(OCc1ccccc1)*

Key:
[1] = test system: KMS-11/Bor (bortezomib-resistant KMS-11 cells); test: Test for the growth inhibition to KMS-11/Bor (WST-1, 72 hours); format: cell-based, human; conditions: for IC50: KMS-11/Bor cells, 72 hours, WST-1, read-out: IC50 KMS-11/Bor (growth-inhibitory effect, viable cell number); for IC50 ratio (IC50 of KMS-11/Bor divided by IC50 of KMS-11): degree of bortezomib resistance, KMS-11/Bor vs KMS-11
Method: KMS-11 cells were suspended in an RPMI1640 medium containing 10% fetal calf serum (FCS) at a concentration of 5×10^4 cells/mL, and incubated at 37° C. in a 5% carbon dioxide incubator. Then, bortezomib was added thereto to adjust the final concentration of 5 nmol/L, and the incubation was continued. After confirmation of the survival and satisfactory growth of the cells, the cells were suspended at a concentration of 5×10^4 cells/mL, then bortezomib was added at a concentration of 10 nmol/L, and the incubation was continued. Then, after confirmation of the survival and satisfactory growth of the cells, the concentration of bortezomib was increased step by step, and the culture and subculture were repeated to create the bortezomib-resistant KMS-11 cells being capable of growing at a concentration of 100 nmol/L of bortezomib. Hereinafter, thus prepared cell line was referred to as “KMS-11/Bor”.
(§1) A cell solution (90 μL/well) of KMS-11 or KMS-11/Bor suspended in an RPMI1640 medium containing 10% FCS (hereinafter referred to as culture medium) at a concentration of 5×10^4 cells/mL was inoculated in a 96-well microplate (Nunc), and as for a blank the culture medium (100 μL/well each) was added, and the plate was incubated in a 5% carbon dioxide incubator for 5 hours.
(§2) The test compound was serially diluted to yield a diluted solution having a concentration of 10-fold of the final concentration, and the solution (10 μL/well each) was added (n=3 for one concentration). As for a control, the culture medium containing no test compound (10 μL/well each) was added. The tests for the control and the blank were performed in n=8. The incubation was carried out for 72 hours after addition of the test compound, and the number of viable cells was counted with a cell proliferation reagent WST-1 (WST-1 reagent; Roche Diagnostics). The WST-1 reagent (10 μL/well) was added to each plate. The plate was incubated in a carbon dioxide incubator for 2 hours, then stirred on a plate mixer, and the absorbance was measured at 450 nm and 655 nm using a microplate spectrophotometer (Molecular Device; SPECTRAmax 340PC-384). For each well, the differential absorbance was calculated by subtracting the absorbance at 655 nm from that at 450 nm. Further, the absorbance corresponding to the viable cell number was calculated by subtracting the differential absorbance of the blank from the above differential absorbance.
(§3) The followings describe the calculation method for IC50. The absorbance corresponding to the viable cell number obtained in the wells untreated with the test compound was regarded as 100%, and the absorbance obtained in the wells treated with the test compound was represented by the relative value (% control). From these values, the IC50 of viable cell number (the concentration at which the viable cell number is reduced to 50% of the control) was calculated. FIGS. 1 to 4 show the % control at the respective concentration of the test compound after treatment with the test compound. […] In addition, values in which IC50 of KMS-11/Bor is divided by IC50 of KMS-11 (IC50 ratio) is shown in Table 3 as the degree of bortezomib resistance in the respective test compounds.

[2] = test system: OPM-2/Bor (bortezomib-resistant OPM-2 cells); test: Test for the growth inhibition to OPM-2/Bor (WST-1, 72 hours); format: cell-based, human; conditions: for IC50: OPM-2/Bor cells, 72 hours, WST-1, read-out: IC50 OPM/Bor (growth-inhibitory effect, viable cell number); for IC50 ratio (IC50 of OPM-2/Bor divided by IC50 of OPM-2): degree of bortezomib resistance, OPM-2/Bor vs OPM-2
Method: OPM-2 cells were suspended in an RPMI1640 medium containing 10% fetal calf serum (FCS) at a concentration of 5×10^4 cells/mL, and incubated at 37° C. in a 5% carbon dioxide incubator. Then, bortezomib was added thereto to adjust the final concentration of 2.5 nmol/L, and the incubation was continued. After confirmation of the survival and satisfactory growth of the cells, bortezomib was added at a concentration of 3.75 nmol/L, and the incubation was continued. Then, after confirmation of the survival and satisfactory growth of the cells, the concentration of bortezomib was increased step by step, and the culture and subculture were repeated to create the bortezomib-resistant OPM-2 cells being capable of growing at a concentration of 15 nmol/L of bortezomib. Hereinafter, thus prepared cell line was referred to as “OPM-2/Bor”.
as §1, with “OPM-2” for “KMS-11”, “OPM-2/Bor” for “KMS-11/Bor”
as §2, with “concentration” for “concentration,”
as §3, with “FIGS. 5” for “FIGS. 1”, “to 8” for “to 4”, “IC50 ratio for OPM-2/Bor was” for “IC50 of KMS-11/Bor is”, “of OPM-2” for “of KMS-11”, “Table 4” for “Table 3”

[3] = test system: KMS-11 cells; test: Test for the growth inhibition to KMS-11 (WST-1, 72 hours); format: cell-based, human; conditions: read-out: IC50 KMS-11 (growth-inhibitory effect, viable cell number)
Method: as §1, §2
(§4) The followings describe the calculation method for IC50. The absorbance corresponding to the viable cell number obtained in the wells untreated with the test compound was regarded as 100%, and the absorbance obtained in the wells treated with the test compound was represented by the relative value (% control). From these values, the IC50 of viable cell number (the concentration at which the viable cell number is reduced to 50% of the control) was calculated. FIGS. 1 to 4 show the % control at the respective concentration of the test compound after treatment with the test compound. […]

[4] = test system: OPM-2 cells; test: Test for the growth inhibition to OPM-2 (WST-1, 72 hours); format: cell-based, human; conditions: read-out: IC50 OPM-2 (growth-inhibitory effect, viable cell number)
Method: as §1, with “OPM-2” for “KMS-11”, “OPM-2/Bor” for “KMS-11/Bor”
as §2, with “concentration” for “concentration,”
as §4, with “FIGS. 5” for “FIGS. 1”, “to 8” for “to 4”

[5] = test system: refractory/recurrent multiple myeloma; conditions: phase I, 17-AAG alone; cited from earlier work
[6] = test system: OPM-2/Bor cells; test: Anti-tumor effect in a mouse model to which the OPM-2/Bor cells have been implanted; format: in vivo; conditions: for T/C value (V/V0 of group divided by V/V0 of negative control group): Day 14, OPM-2/Bor implanted scid mice
Method: The day before the implantation of cancer cells, an anti-asialo GM1 antibody (0.3 mg/mouse each) was administered intraperitoneally to Fox C. B-17/Icr-scidJcl mice (CLEA Japan, Inc.). The OPM-2/Bor cells were grown by incubation in an RPMI1640 medium containing 10% FCS at 37° C. in a 5% carbon dioxide incubator, and implanted into the ventral subcutaneous portion at a dose of 1×10^7 cells/mouse. Eighteen days after implantation, the major axis and minor axis of the tumor growing in the subcutaneous portion were measured with a vernier micrometer, and the tumor volume was calculated according to the following equation.
At the same time, the body weight of each mouse was measured, and the mice were divided into the following administration groups consisting of 5 mice per group so that the average tumor volume and the average body weight became uniform; and this day was regarded as the test-starting day 0, on which the administration was started.
Compound 22 was dissolved in physiological saline (Otsuka Pharmaceutical Co., Ltd.) at a concentration of 10 or 5 mg/mL, and administered intravenously in the tail vein at a dose of 0.01 mL/g body weight of mouse, respectively, (corresponding to 100 mg/kg and 50 mg/kg) twice a day continuously up to the 4th day from the starting day 0.
Bortezomib was dissolved in physiological saline at a concentration of 0.1 or 0.05 mg/mL, and administered intravenously in the tail vein at a dose of 0.01 mL/g body weight of mouse, respectively, (corresponding to […] and 0.5 mg/kg) once a day on the starting day 0, […].
A. Negative control group (Control): No administration of the test compound B. Bortezomib administered group: 1 mg/kg (administered once a day on the days 0, 3, 7, and 10) C. […]
Following the day 0, the tumor volume was measured twice a week. The anti-tumor effect was determined by calculating the average value of the tumor volume in each group and comparing a change of the tumor volume (V/V0), wherein the tumor volume on the day 0 was defined as V0.

[7] = test system: refractory/recurrent multiple myeloma; conditions: clinical, New England Journal of Medicine 348, 2609; cited from earlier work
[8] = test system: refractory/recurrent multiple myeloma; conditions: phase I, IPI-504 alone; cited from earlier work

| SMILES | IC50 [1] [nM] | IC50 ratio (IC50 of KMS-11/Bor divided by IC50 of KMS-11) [1] | IC50 [2] [nM] | IC50 ratio (IC50 of OPM-2/Bor divided by IC50 of OPM-2) [2] | IC50 [3] [nM] | IC50 [4] [nM] | Patients with stable disease (SD) or more effect [5] | IC50 ([1]; Homo sapiens) [nM] | IC50 ([2]; Homo sapiens) [nM] | T/C value (V/V0 of group divided by V/V0 of negative control group) ([6]; B group: 1 mg/kg intravenously once a day on days 0, 3, 7, 10) | T/C value (V/V0 of group divided by V/V0 of negative control group) ([6]; C group: 0.5 mg/kg intravenously once a day on days 0, 3, 7, 10) | Anti-tumor effect, change of tumor volume (V/V0), FIG. 9 ([6]; OPM-2/Bor implanted mice, Compound 22 100 and 50 mg/kg, bortezomib 1 and 0.5 mg/kg) | Share of refractory/recurrent multiple myeloma in which the drug is effective [7] | Share of refractory/recurrent multiple myeloma in which the drug is ineffective [7] | IC50 ([3]; Homo sapiens) [nM] | IC50 ([4]; Homo sapiens) [nM] | Cases with SD as anti-tumor effect [8] |
| --- | --- | --- | --- | --- | --- | --- | --- | --- | --- | --- | --- | --- | --- | --- | --- | --- | --- |
| C=CCNC1=C2C[C@@H](C)C[C@H](OC)[C@H](O)[C@@H](C)/C=C(\C)[C@H](OC(N)=O)[C@@H](OC)/C=C\C=C(/C)C(=O)NC(=CC1=O)C2=O [Compound 17-AAG, 17-allylamino-17-demethoxygeldanamycin] | 62 | 0.76 | 350 | 1.1 | 82 | 310 | 9 out of the 22 |  |  |  |  |  |  |  |  |  |  |
| CC(C)C[C@H](NC(=O)[C@H](Cc1ccccc1)NC(=O)c1cnccn1)B(O)O [Bortezomib, bortezomib] |  | 21 |  | 28 |  |  |  | 170 | 110 | 0.85 | 1.0 | did not show a remarkable growth inhibitory effect | approximately 35% | approximately 40% | 8.2 | 3.9 |  |
| CC(C)C[C@@H](C=O)NC(=O)[C@H](CC(C)C)NC(=O)[C@H](CC(C)C)NC(=O)OCc1ccccc1 [MG-132] (Cbz-Leu-Leu-Leu-aldehyde) |  | 7.7 |  | 16 |  |  |  | 2000 | 1500 |  |  |  |  |  | 260 | 94 |  |
| C=CCNc1c(O)cc2c(O)c1C[C@@H](C)C[C@H](OC)[C@H](O)[C@@H](C)/C=C(\C)[C@H](OC(N)=O)[C@@H](OC)/C=C\C=C(/C)C(=O)N2 [IPI-504] |  |  |  |  |  |  |  |  |  |  |  |  |  |  |  |  | 3 out of the 17 |
